Data reported in patent publication US4252804A, “Therapeutically useful 3,4,5-trimethoxybenzene derivatives” (Metabio-Joullie, priority 1977, dated 1981).

Columns and labels:
Assay type in all cases: in vivo
[1] = Acute toxicity for oral administration in mice; conditions: mouse, in vivo, suspension in 10% gum arabic
Description: 1--ACUTE TOXICITY FOR ORAL ADMINISTRATION IN MICE
The compounds are administered orally in increasing doses in suspension in a 10% gum arabic solution to groups of 5 .female. mice of mean weight 25 g. The 50% lethal doses (LD 50) are calculated by the method of KARBER and BEHRENS (Arch. Exp. Path. Pharmakol. 1935, 177, 379-388).
The LD 50's found are summarised in Table IV below and indicate that the tested compounds have low toxicity.

[2] = tested on: pentobarbital hypnosis time; assay: Action on the pentobarbital hypnosis time in the mouse; conditions: po, 0.5 h, 30 minutes before pentobarbital 50 mg/kg i.v., vs control, read-out: Percentage variation in pentobarbital hypnosis time; for change in vivo at 250 mg/kg: 250 mg/kg p.o.; for change in vivo at 500 mg/kg: 500 mg/kg p.o.; for change in vivo at 375 mg/kg: 375 mg/kg p.o.
Description: 2.2--Action on the pentobarbital hypnosis time in the mouse
The hypnosis time of each mouse is counted in minutes from the moment when the animal may be placed without resistance on its back until that when it spontaneously gets back on its feet.

[3] = tested on: spontaneous motor activity; assay: Action on spontaneous motor activity in the mouse (BOISSIER); conditions: po, 0.5 h, 30 minutes after administration, vs control, read-out: Percentage variation in motor activity; for change in vivo at 250 mg/kg: 250 mg/kg p.o.; for change in vivo at 500 mg/kg: 500 mg/kg p.o.; for change in vivo at 375 mg/kg: 375 mg/kg p.o.
Description: 2.1--Action on spontaneous motor activity in the mouse
30 minutes after administration per os of the test compounds, the mice (groups of 12 animals) are installed in individual cages in a BOISSIER activity measuring cupboard and move about before two photoelectric cells placed according to the rectangular coordinates. Meters register the movement during 20 minutes.

[4] = tested on: convulsant effects of electric shock; assay: Action against the convulsant effects of electric shock in the mouse; conditions: po, 0.5 h, 30 minutes before shock, 13 to 16 mA for 0.1 sec, read-out: Percentage protection against the convulsant effects of the electric shock; for responders at 500 mg/kg: 500 mg/kg p.o.
Description: (§1) 2.3--Test on the action against the convulsant effects of electric shock and of strychnine in the mouse
(§2) 30 minutes after administration of the compounds to groups of 10 animals, there is investigated the protection induced against:
tonic crisis (extension of rear feet) provoked by supramaximal transcranial electric stimulation (13 to 16 mA for 0.1 sec).
(§3) The results are expressed as a percentage of protection based on a control group which have only received the administration vehicle for the compounds.

[5] = tested on: convulsant effects of strychnine; assay: Action against the convulsant effects of strychnine in the mouse; conditions: 30 minutes before strychnine 1.5 mg/kg s.c.
Description: as §1, §2
convulsive crisis and death provoked by injection of strychnine at a limiting lethal dose of 1.5 mg/kg s.c.
as §3

Row | SMILES | LD50 ([1]; po) [mg/kg] | further results
1 | COc1cc(NC(=O)CN2CCN(CC(=O)Nc3cc(OC)c(OC)c(OC)c3)CC2)cc(OC)c1OC [compound 848] | > 5000 | –
2 | COc1cc(OC(=O)N2CCOc3ccccc32)cc(OC)c1OC [compound 773] | – | LD50 [1]: > 5000 mg/kg
3 | COc1cc(NC(=O)NN2CCOCC2)cc(OC)c1OC [compound 807] | 2500 | change in vivo at 250 mg/kg [2]: 98%; change in vivo at 250 mg/kg [3]: -33%
4 | COc1cc(NC(=O)N2CCOc3ccccc32)cc(OC)c1OC [compound 774] | > 5000 | –
5 | CCCCN(CCCC)C(=O)Nc1cc(OC)c(OC)c(OC)c1 [compound 780] | > 5000 | –
6 | COc1cc(NCC(=O)N2CCOc3ccc(Cl)cc32)cc(OC)c1OC [compound 762] | > 5000 | –
7 | COc1cc(NC(=O)N(C)C2CCCCC2)cc(OC)c1OC [compound 802] | > 5000 | –
8 | COc1cc(NC(=O)NC2CCCC2)cc(OC)c1OC [compound 800] | > 5000 | –
9 | C=CCN(C(=O)Nc1cc(OC)c(OC)c(OC)c1)C1CCCCC1 [compound 811] | 5000 | –
10 | COc1cc(NCC(=O)N2CCN(c3ccccc3)CC2)cc(OC)c1OC [compound 837] | > 5000 | –
11 | COc1cc(NC(=O)N2CCN(CC(=O)N3CCCCC3)CC2)cc(OC)c1OC [compound 830] | 5000 | –
12 | COc1cc(NC(=O)CCN2CCOCC2)cc(OC)c1OC [compound 817] | 5000 | change in vivo at 500 mg/kg [2]: 300%; responders at 500 mg/kg [4]: 40%; change in vivo at 500 mg/kg [3]: -17%
13 | COc1cc(N(CCN2CCOCC2)C(=O)N2CCOCC2)cc(OC)c1OC [compound 822] | 5000 | –
14 | COc1cc(NS(=O)(=O)N2CCOCC2)cc(OC)c1OC [compound 791] | > 5000 | change in vivo at 500 mg/kg [2]: 200%; change in vivo at 500 mg/kg [3]: -53%
15 | COc1cc(NC(=O)N(C)CCCN(C)C)cc(OC)c1OC [compound 805] | 2500 | –
16 | COc1cc(NC(=O)CN2CCOCC2)cc(OC)c1OC [compound 787] | 2500 | change in vivo at 250 mg/kg [2]: 141%; change in vivo at 250 mg/kg [3]: -84%
17 | COc1cc(NC(=O)N2CCN(C(c3ccccc3)c3ccc(Cl)cc3)CC2)cc(OC)c1OC (stereo not drawn) [compound 795] | > 5000 | –
18 | C=C(C)CNC(=O)Nc1cc(OC)c(OC)c(OC)c1 [compound 812] | 2000 | –
19 | COc1cc(NCC(=O)N2CCOc3ccccc32)cc(OC)c1OC [compound 782] | > 5000 | –
20 | COc1cc(OC(=O)N2CCN(C)CC2)cc(OC)c1OC [compound 767] | – | LD50 [1]: 1020 mg/kg
21 | COc1cc(NC(=O)NCCc2ccccc2)cc(OC)c1OC [compound 783] | > 5000 | –
22 | CCN(CC)C(=O)Nc1cc(OC)c(OC)c(OC)c1 [compound 809] | 3000 | change in vivo at 300 mg/kg ([2]; 300 mg/kg p.o.): 157%; responders at 300 mg/kg ([4]; 300 mg/kg p.o.): 80%; change in vivo at 300 mg/kg ([3]; 300 mg/kg p.o.): -78%
23 | COc1cc(NC(=O)N2CCCO2)cc(OC)c1OC [compound 820] | 1250 | –
24 | COc1cc(NC(=O)CN2CCOc3ccccc32)cc(OC)c1OC [compound 792] | > 5000 | –
25 | COc1cc(N(Cc2ccccc2)C(=O)N2CCOCC2)cc(OC)c1OC [compound 821] | 2500 | –
26 | COc1cc(CNC(=O)Nc2cc(OC)c(OC)c(OC)c2)cc(OC)c1OC [compound 798] | > 5000 | change in vivo at 500 mg/kg [2]: 145%; responders at 500 mg/kg [4]: 40%; change in vivo at 500 mg/kg [3]: -20%
27 | COc1cc(NC(=O)NCCc2ccc(Cl)cc2)cc(OC)c1OC [compound 796] | > 5000 | –

Row | SMILES | LD50 ([1]; po) [mg/kg] | further results
28 | COc1cc(NC(=O)NC2CCCCC2)cc(OC)c1OC [compound 778] | > 5000 | –
29 | COc1cc(NC(=O)OCCN2CCOCC2)cc(OC)c1OC [compound 818] | – | change in vivo at 350 mg/kg ([2]; 350 mg/kg p.o.): 180%; change in vivo at 350 mg/kg ([3]; 350 mg/kg p.o.): -33%; LD50 [1]: 3500 mg/kg
30 | COc1cc(NC(=O)NCC2CCCCO2)cc(OC)c1OC (stereo not drawn) [compound 815] | 5000 | –
31 | COc1cc(NC(=O)N2CCCCCC2)cc(OC)c1OC [compound 813] | 3000 | –
32 | COc1cc(NCC(=O)N2CCOCC2)cc(OC)c1OC [compound 793] | 1250 | –
33 | COc1cc(NC(=O)N2CCN(C)CC2)cc(OC)c1OC [compound 759] | 4000 | change in vivo at 400 mg/kg ([2]; 400 mg/kg p.o.): 22%; Percentage protection against the convulsant effects of strychnine ([5]; 400 mg/kg p.o.): 55%; change in vivo at 400 mg/kg ([3]; 400 mg/kg p.o.): -45%
34 | COc1cc(NC(=O)NC(C)CN(C)C)cc(OC)c1OC (stereo not drawn) [compound 784] | 3380 | –
35 | COc1cc(NC(=O)N2CCOc3ccc(Cl)cc32)cc(OC)c1OC [compound 770] | > 5000 | –
36 | COc1cc(NC(=O)CCN2CCN(c3cccc(C(F)(F)F)c3)CC2)cc(OC)c1OC [compound 841] | > 5000 | –
37 | COc1cc(NC(=O)N2CCCCC2)cc(OC)c1OC [compound 776] | 3750 | change in vivo at 375 mg/kg [2]: 130%; Percentage protection against the convulsant effects of strychnine ([5]; 375 mg/kg p.o.): 44%; change in vivo at 375 mg/kg [3]: -48%
38 | COc1cc(NC(=O)NCC2CCCO2)cc(OC)c1OC (stereo not drawn) [compound 797] | 4400 | –
39 | COc1cc(NC(=O)NC(=O)CN2CCOCC2)cc(OC)c1OC [compound 834] | 3380 | –
40 | COc1cc(NC(=O)N2CCOC(C)C2)cc(OC)c1OC (stereo not drawn) [compound 816] | 2500 | –
41 | COc1cc(NC(=O)NC2CCCCCC2)cc(OC)c1OC [compound 799] | > 5000 | –
42 | COc1cc(NCC(=O)N2CCN(C)CC2)cc(OC)c1OC [compound 786] | 1700 | change in vivo at 170 mg/kg ([2]; 170 mg/kg p.o.): 172%; change in vivo at 170 mg/kg ([3]; 170 mg/kg p.o.): -20%
43 | COc1cc(NC(=O)N2CC(C)OC(C)C2)cc(OC)c1OC (stereo not drawn) [compound 788] | 1350 | change in vivo at 135 mg/kg ([3]; 135 mg/kg p.o.): -34%
44 | COc1cc(NC(=O)N2CCC(O)CC2)cc(OC)c1OC [compound 814] | 5000 | –
45 | COc1cc(NC(=O)ON2CCOCC2)cc(OC)c1OC [compound 828] | – | LD50 [1]: > 5000 mg/kg
46 | COc1cc(NC(=O)NC2CCCCCCC2)cc(OC)c1OC [compound 781] | > 5000 | –
47 | COc1cc(NC(=O)N2CCSCC2)cc(OC)c1OC [compound 804] | > 5000 | change in vivo at 500 mg/kg [2]: 120%; change in vivo at 500 mg/kg [3]: -24%
48 | COc1cc(NC(=O)CN2CCN(c3cccc(C(F)(F)F)c3)CC2)cc(OC)c1OC [compound 838] | > 5000 | –
49 | COc1cc(NC(=O)Nc2ccnc3cc(Cl)ccc23)cc(OC)c1OC [compound 777] | > 5000 | –
50 | COc1cc(NC(=O)N2CCN(C(=O)Nc3cc(OC)c(OC)c(OC)c3)CC2)cc(OC)c1OC [compound 840] | > 5000 | –
51 | COc1cc(NC(=O)N2CCCC2)cc(OC)c1OC [compound 810] | 3750 | change in vivo at 375 mg/kg [2]: 148%; responders at 375 mg/kg ([4]; 375 mg/kg p.o.): 70%; change in vivo at 375 mg/kg [3]: -38%
52 | COc1cc(NC(=O)CCN2CCC(O)(c3ccc(Cl)cc3)CC2)cc(OC)c1OC [compound 829] | – | LD50 [1]: > 5000 mg/kg
53 | COc1cc(NC(=O)NCCCN(C)C)cc(OC)c1OC [compound 785] | 2200 | –
